{"source": "patent US20240173333A1", "about": "“Treating Alagille Syndrome (ALGS)” (priority 2022, published 2024)", "key": {"[1]": {"tested_on": "patients with Alagille syndrome (ALGS)", "assay": "Pooled ASSERT and ASSERT-EXT: hepatic parameters (ALT, AST, GGT, total bilirubin)", "assay_type": "in vivo, human", "method": "In the completed 24-week ASSERT study, patients with ALGS with history of significant pruritus and elevated serum BAs were randomized 2:1 to once-daily odevixibat 120 μg/kg or placebo, respectively. Patients who completed ASSERT could enter ASSERT-EXT, an ongoing, 72-week open-label extension study in which all patients receive odevixibat 120 μg/kg/day. This pooled analysis included all odevixibat-treated patients from ASSERT and/or ASSERT-EXT and spans from patients' first dose of odevixibat to a data cut-off of Sep. 9, 2022. Assessments over up to 36 weeks of treatment included change in observer-reported scratching scores and sleep parameters, as well as levels of serum BAs, autotaxin (a proposed meditator of pruritus), and 7 alpha-hydroxy-4-cholesten-3-one (C4; a marker of bile acid synthesis). Safety evaluations included assessment of alanine aminotransferase (ALT), total bilirubin, and treatment-emergent adverse events (TEAEs).\nPatients who completed ASSERT could enter ASSERT-EXT, an ongoing 72-week extension study in which all patients received odevixibat 120 μg/kg/day. This pooled analysis spans from patients' first dose of odevixibat in ASSERT and/or ASSERT-EXT to a data cutoff at the end of the 72 week period; data from patients who received placebo in ASSERT are also presented for comparison. In both studies, laboratory assessments included measurement of serum alanine transaminase (ALT), Aspartate transaminase (AST), Gamma-glutamyltransferase (GGT), and total bilirubin levels. Caregivers rated patient pruritus using the PRUCISION™ instrument."}, "[2]": {"tested_on": "patients with Alagille syndrome (ALGS)", "assay": "ASSERT pruritus responders: serum bile acids", "description": "Treatment with concomitant medications for pruritus was permitted provided the patient was on a stable dosage for ≥4 weeks prior to enrollment that was maintained throughout the study.\nPruritus responders were defined as patients having a ≥1-point decrease in ObsRO scratching score from baseline to weeks 21-24)."}, "[3]": {"tested_on": "patients with Alagille syndrome (ALGS)", "assay": "ASSERT: global impression of change (CGIC, CaGIC, PGIC) and exit survey", "assay_type": "in vivo, human", "settings": "post hoc analysis; completion of study"}, "[4]": {"tested_on": "patients with Alagille syndrome (ALGS)", "assay": "ASSERT: Clinician Xanthoma Scale", "assay_type": "in vivo, human", "method": "Clinical Assessment of Xanthoma. Changes in xanthoma as assessed by the Clinician Xanthoma Scale were measured at randomization (Study Day 1), Week 12, and Week 24/EOT visits. The clinician's assessment of the participant's xanthomatosis was focused on the number of lesions present and the degree to which the participant's lesions interfered or limited activities."}, "[5]": {"tested_on": "pediatric patient with genetic confirmation of ALGS", "excerpt": "The ileal bile acid transporter (IBAT) is a regulator of the enterohepatic bile acid circulation (Karpen et al.). Given the central feature of cholestasis in ALGS and the role of IBAT in bile acid homeostasis, IBAT inhibitors may help alleviate symptoms of ALGS. The IBAT inhibitor odevixibat is indicated for treatment of pruritus in patients ≥3 months old with progressive familial intrahepatic cholestasis (PFIC), another pediatric cholestatic liver disease, in the US and for treatment of PFIC in patients aged ≥6 months in the European Union.\nThe patient was referred to specialist care […]. […] […], a liver biopsy was performed.\nDuring this clinical course, the patient received UDCA (15 mg/kg body weight) and naltrexone (1 mg/kg/day), treatments that were pursued according to German treatment guidelines and following discussions among the care team and with the patient's parents."}, "[6]": {"tested_on": "patients with Alagille syndrome (ALGS)", "assay": "ASSERT: PedsQL total and domain scores", "assay_type": "in vivo, human", "excerpt": "[…] Additional secondary efficacy endpoints were as follows: • Change from baseline in pruritus to Month 6 (Weeks 21 to 24) as measured by the Albireo PRO instrument. • Percentage of patients achieving a clinically meaningful decrease in pruritus (pruritis responders) as measured by the ObsRO/PRO instruments. • Change from baseline through Week 24 in patient reported and observer reported itching and scratching severity scores, respectively, for the morning assessment and for the evening assessment; sleep parameters as measured with the Albireo ObsRO/PRO instruments (e.g., tiredness and number of awakenings); and PedsQL subdomain scores. • Assessment of Global Symptom Relief to from baseline to Weeks 4, 12, and 24 as measured by patient, caregiver, and clinician Global Impression of Symptoms GIS (PGIS, CaGIS, CGIS) items. • Change from baseline to Week 24 in xanthomatosis as assessed by the Clinician Xanthoma Scale; serum bile acid levels; serum ALT concentration; and serum AST concentration; gamma-glutamyl transferase concentration; total bilirubin concentration. • Change from baseline in biochemical markers and measures of bile acid synthesis (autotaxin, p-C4, only in patients >10 kg); and total cholesterol concentration.\nScores range from 0 and 100, with higher scores indicating better functioning. *n=28 for LS mean change from baseline to week 24. ^†Analysis of change from baseline with odevixibat vs placebo based on ANCOVA model at each visit with baseline score as a covariate and treatment group and age category (<5 years, 5-7 years, 8-12 years, 13-18 years) as fixed effects. ANCOVA=analysis of covariance. LS=least squares. PedsQL=Paediatric Quality of Life Inventory."}}, "note": "Like-named read-outs stand apart in the source and are kept apart here."}
{"smiles": "CCCCC1(CCCC)CN(c2ccccc2)c2cc(SC)c(OCC(=O)N[C@@H](C(=O)N[C@@H](CC)C(=O)O)c3ccc(O)cc3)cc2S(=O)(=O)N1", "note": "[odevixibat, 1,1-dioxo-3,3-dibutyl-5-phenyl-7-methylthio-8-(N-{(R)-α-[N-((S)-1-carboxypropyl)carbamoyl]-4-hydroxybenzyl}carbamoylmethoxy)-2,3,4,5-tetrahydro-1,2,5-benzothiadiazepine]", "values": [{"measurement": "ALT, Mean (SD), Change to week 48", "setting": "[1]; n=9", "value": "64 (102) U/L"}, {"measurement": "AST, Mean (SD), Change to week 48", "setting": "[1]; n=9", "value": "37 (72) U/L"}, {"measurement": "GGT, Mean (SD), Change to week 48", "setting": "[1]; n=9", "value": "2 (238) U/L"}, {"measurement": "Total bilirubin, Mean (SD), Change to week 48", "setting": "[1]; n=9", "value": "−1 (16) μmol/L"}, {"measurement": "ALT, Mean (SD), Change to week 36", "setting": "[1]; n=15", "value": "79 (91) U/L"}, {"measurement": "AST, Mean (SD), Change to week 36", "setting": "[1]; n=16", "value": "67 (66) U/L"}, {"measurement": "GGT, Mean (SD), Change to week 36", "setting": "[1]; n=16", "value": "101 (149) U/L"}, {"measurement": "Total bilirubin, Mean (SD), Change to week 36", "setting": "[1]; n=16", "value": "10 (37) μmol/L"}, {"measurement": "ALT, Mean (SD), Change to week 24", "setting": "[1]; n=37", "value": "57 (81) U/L"}, {"measurement": "AST, Mean (SD), Change to week 24", "setting": "[1]; n=37", "value": "43 (89) U/L"}, {"measurement": "GGT, Mean (SD), Change to week 24", "setting": "[1]; n=37", "value": "107 (170) U/L"}, {"measurement": "Total bilirubin, Mean (SD), Change to week 24", "setting": "[1]; n=37", "value": "−1 (19) μmol/L"}, {"measurement": "AST, Mean (SD), Change to week 12", "setting": "[1]; n=42", "value": "36 (67) U/L"}, {"measurement": "ALT, Mean (SD), Change to week 12", "setting": "[1]; n=43", "value": "63 (82) U/L"}, {"measurement": "GGT, Mean (SD), Change to week 12", "setting": "[1]; n=44", "value": "97 (178) U/L"}, {"measurement": "Total bilirubin, Mean (SD), Change to week 12", "setting": "[1]; n=44", "value": "−3 (32) μmol/L"}, {"measurement": "ALT, Mean (SD), Change to week 4", "setting": "[1]; n=46", "value": "55 (71) U/L"}, {"measurement": "AST, Mean (SD), Change to week 4", "setting": "[1]; n=46", "value": "40 (67) U/L"}, {"measurement": "GGT, Mean (SD), Change to week 4", "setting": "[1]; n=46", "value": "79 (191) U/L"}, {"measurement": "Total bilirubin, Mean (SD), Change to week 4", "setting": "[1]; n=46", "value": "−4 (19) μmol/L"}, {"measurement": "ALT, Mean (SD), Baseline", "setting": "[1]; n=52, before odevixibat", "value": "173 (79) U/L"}, {"measurement": "AST, Mean (SD), Baseline", "setting": "[1]; n=52, before odevixibat", "value": "164 (76) U/L"}, {"measurement": "GGT, Mean (SD), Baseline", "setting": "[1]; n=52, before odevixibat", "value": "441 (329) U/L"}, {"measurement": "Total bilirubin, Mean (SD), Baseline", "setting": "[1]; n=52, before odevixibat", "value": "56 (49) μmol/L"}, {"measurement": "concurrent total bilirubin levels in the 4 patients with AST/ALT >3×BL", "setting": "[1]; pooled", "value": "< 2", "unit": "times the baseline level"}, {"measurement": "patients with on-treatment elevations in ALT and total bilirubin that met Hy's law criteria", "setting": "[1]; pooled", "value": "No patients"}, {"measurement": "patients with potentially clinically significant elevations in AST and/or ALT to >3 times the baseline level", "setting": "[1]; pooled, n=52", "value": 4, "unit": "patients"}, {"measurement": "Bile acids, Week 24 Mean (SE)", "setting": "[2]; average of weeks 20 and 24, n=28", "value": "136 (19) μmol/L"}, {"measurement": "Bile acids, Mean (SE) Change From Baseline", "setting": "[2]; baseline to average of weeks 20 and 24", "value": "−107 (23) μmol/L"}, {"measurement": "Bile acids, Baseline Mean (SE)", "setting": "[2]; n=28", "value": 243, "unit": "µmol/L"}, {"measurement": "Bile acids, Baseline Mean (SE)", "setting": "[2]; n=28, listed as Odevixibat", "value": "243 (23) μmol/L"}, {"measurement": "caregivers reporting meaningful change in the patient since the start of treatment (exit survey)", "setting": "[3]", "value": 78, "unit": "%"}, {"measurement": "patients with no change from baseline to week 24 in xanthomas", "setting": "[4]; 27/35, incl. 25 patients without xanthomas at any time point", "value": 77, "unit": "%"}, {"measurement": "patients showing improvements in xanthomas", "setting": "[4]; baseline to week 24, n=35", "value": 20, "unit": "%"}, {"measurement": "patients whose Clinician Xanthoma Scale score increased (from 0 to 1)", "setting": "[4]; baseline to week 24, n=35", "value": 3, "unit": "%"}, {"measurement": "effect of dosage change on sBAs", "setting": "[5]; 30 μg/kg/day, September to October 2021", "value": "associated with an increase in sBAs"}, {"measurement": "drop in sBAs", "setting": "[5]; Apr. 27, 2021 to May 31, 2021, 120 μg/kg/day started May 19, 2021", "value": "approximately 90%"}, {"measurement": "sBAs after start of odevixibat", "setting": "[5]; May 31, 2021, from 700 μmol/L on Apr. 27, 2021, 120 μg/kg/day", "value": 69, "unit": "µmol/L"}, {"measurement": "bowel movements improved after", "setting": "[5]; after starting odevixibat", "value": 1, "unit": "week"}, {"measurement": "pruritus almost entirely disappeared within", "setting": "[5]; after starting odevixibat", "value": "≤ 2", "unit": "weeks"}, {"measurement": "pruritus stopped completely after", "setting": "[5]; after starting odevixibat", "value": 8, "unit": "months"}, {"measurement": "effect of dosage change on sBAs", "setting": "[5]; back to 120 μg/kg/day in mid-December", "value": "corresponded with a drop in sBAs"}, {"measurement": "adverse events", "setting": "[5]; in vivo", "value": "did not experience any adverse events"}, {"measurement": "sBA levels reached the normal range after", "setting": "[5]; treatment duration", "value": 8, "unit": "months"}, {"measurement": "PedsQL Emotional Functioning, Mean (SD) at baseline", "setting": "[6]; baseline, n=30", "value": "55.8 (17.8)"}, {"measurement": "PedsQL Physical Functioning, Mean (SD) at baseline", "setting": "[6]; baseline, n=30", "value": "71.6 (21.4)"}, {"measurement": "PedsQL School Functioning, Mean (SD) at baseline", "setting": "[6]; baseline, n=30", "value": "63.3 (22.9)"}, {"measurement": "PedsQL Social Functioning, Mean (SD) at baseline", "setting": "[6]; baseline, n=30", "value": "78.5 (18.8)"}, {"measurement": "PedsQL Total Score, Mean (SD) at baseline", "setting": "[6]; baseline, n=30, score 0-100", "value": "67.8 (16.3)"}, {"measurement": "PedsQL Emotional Functioning, LS mean (SE) change from baseline to week 24", "setting": "[6]; n=28", "value": "21.0 (3.3)"}, {"measurement": "PedsQL Physical Functioning, LS mean (SE) change from baseline to week 24", "setting": "[6]; n=28", "value": "14.2 (2.9)"}, {"measurement": "PedsQL School Functioning, LS mean (SE) change from baseline to week 24", "setting": "[6]; n=28", "value": "13.3 (3.0)"}, {"measurement": "PedsQL Social Functioning, LS mean (SE) change from baseline to week 24", "setting": "[6]; n=28", "value": "5.1 (3.2)"}, {"measurement": "PedsQL Total Score, LS mean (SE) change from baseline to week 24", "setting": "[6]; n=28, score 0-100", "value": "13.5 (2.5)"}]}
